In patent publication US7419780B2, “Methods and assays for screening protein targets” (The Trustees of Columbia University in the City of New York, priority 2000, dated 2008):

Tests used:
Format in all cases: cell-based, S. cerevisiae
Settings in all cases: 1 uM small molecule, difference to activity without small molecule, average of two trials
[1] = biological target: T1, LexA (GSG)2eDHFR / B42 rGR2 (UniProt P06536+P0ABQ4, C656G/F620S); test: β-galactosidase activity assay, strain V498Y
T1 construct: rat Glucocorticoid Receptor (aa 524-795) with point mutations; expressed in transfected cells; host or cells: S. cerevisiae FY250
T1 sequence (P0ABQ4 1-159): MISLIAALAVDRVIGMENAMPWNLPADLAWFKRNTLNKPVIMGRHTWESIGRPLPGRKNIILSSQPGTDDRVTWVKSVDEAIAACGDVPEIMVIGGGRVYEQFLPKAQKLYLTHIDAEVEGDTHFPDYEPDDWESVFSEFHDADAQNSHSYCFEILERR
T1 sequence (P06536 524-795 F620S/C656G limits assumed): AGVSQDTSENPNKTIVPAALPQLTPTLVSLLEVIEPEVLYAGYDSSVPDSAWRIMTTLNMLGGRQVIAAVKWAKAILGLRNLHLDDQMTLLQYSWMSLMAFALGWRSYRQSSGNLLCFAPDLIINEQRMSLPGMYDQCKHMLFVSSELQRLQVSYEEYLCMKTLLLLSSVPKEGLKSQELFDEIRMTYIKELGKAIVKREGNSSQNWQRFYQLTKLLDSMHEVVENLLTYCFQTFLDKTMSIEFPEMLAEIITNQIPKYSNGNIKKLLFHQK
Text: (§1) Table III explains the components of each strain. Each strain was constructed from the parent yeast strain FY250 and also contains the pMW106 plasmid, which has the LacZ reporter gene that is turned on only in when the LexA DNA binding domain and the B42 activation are brought in tot he vicinity of each other. We use several different strains because we use DHFR from two different species, mDHFR is from murine, while eDHFR is from E. coli. We are asl oable to switch the small moleculebinding domains. For example, the strain containing LexA-eDHFR with B42-rGH2 is a different strain and behaves differently from the strain containing LexA-rGR2 with B42-eDHFR. We also put in short 6 amino acid linkers between the two domains of our protein chimeras and thus these are different strain as well.
(§2) The results in Table IV are averages of two separate trials. Each strain was examined with small molecules and without small molecules. The absolute activity is given as the β-galactisidase activity […]. The average β-galactosidse activity for a strain without small molecule (i.e. the negative control) was about 100 β-galactosidase units.

[2] = biological target: T2, LexA mDHFR / B42 (GSG)rGR2 (UniProt P00375+P06536, C656G/F620S); test: β-galactosidase activity assay, strain V497Y
T2 construct: rat Glucocorticoid Receptor (aa 524-795) with point mutations; expressed in transfected cells; host or cells: S. cerevisiae FY250
T2 sequence (P00375 1-187): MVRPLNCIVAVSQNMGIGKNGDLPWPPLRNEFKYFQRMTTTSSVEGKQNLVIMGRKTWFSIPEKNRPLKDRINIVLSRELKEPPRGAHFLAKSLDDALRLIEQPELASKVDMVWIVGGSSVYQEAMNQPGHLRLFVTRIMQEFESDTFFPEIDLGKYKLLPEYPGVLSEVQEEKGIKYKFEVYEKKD
T2 sequence (P06536 524-795 F620S/C656G limits assumed): T1 sequence (P06536 524-795 F620S/C656G limits assumed)
Text: as §1, §2

[3] = biological target: T3, LexA (GSG)2eDHFR / B42 gly6rGR2 (UniProt P06536+P0ABQ4, C656G/F620S); test: β-galactosidase activity assay, strain V499Y
T3 construct: rat Glucocorticoid Receptor (aa 524-795) with point mutations; expressed in transfected cells; host or cells: S. cerevisiae FY250
T3 sequence (P0ABQ4 1-159): T1 sequence (P0ABQ4 1-159)
T3 sequence (P06536 524-795 F620S/C656G limits assumed): T1 sequence (P06536 524-795 F620S/C656G limits assumed)
Text: as §1, §2

[4] = biological target: T4, LexA (GSG)2rGR2 / B42 (GSG)2mDHFR (UniProt P00375+P06536, C656G/F620S); test: β-galactosidase activity assay, strain V512Y
T4 construct: rat Glucocorticoid Receptor (aa 524-795) with point mutations; expressed in transfected cells; host or cells: S. cerevisiae FY250
T4 sequence (P06536 524-795 F620S/C656G limits assumed): T1 sequence (P06536 524-795 F620S/C656G limits assumed)
T4 sequence (P00375 1-187): T2 sequence (P00375 1-187)
Text: as §1, §2

LexA mDHFR / B42 rGR2 = biological target: T5, LexA mDHFR / B42 rGR2 (UniProt P00375+P06536, C656G/F620S); test: β-galactosidase activity assay, strain V495Y
T5 construct: rat Glucocorticoid Receptor (aa 524-795) with point mutations; expressed in transfected cells; host or cells: S. cerevisiae FY250
T5 sequence (P00375 1-187): T2 sequence (P00375 1-187)
T5 sequence (P06536 524-795 F620S/C656G limits assumed): T1 sequence (P06536 524-795 F620S/C656G limits assumed)
Text: as §1, §2

[5] = biological target: T6, LexA mDHFR / B42 gly6rGR2 (UniProt P00375+P06536, C656G/F620S); test: β-galactosidase activity assay, strain V496Y
T6 construct: rat Glucocorticoid Receptor (aa 524-795) with point mutations; expressed in transfected cells; host or cells: S. cerevisiae FY250
T6 sequence (P00375 1-187): T2 sequence (P00375 1-187)
T6 sequence (P06536 524-795 F620S/C656G limits assumed): T1 sequence (P06536 524-795 F620S/C656G limits assumed)
Text: as §1, §2

[6] = biological target: T7, LexA (GSG)2rGR2 / B42 (GSG)2eDHFR (UniProt P06536+P0ABQ4, C656G/F620S); test: β-galactosidase activity assay, strain V510Y
T7 construct: rat Glucocorticoid Receptor (aa 524-795) with point mutations; expressed in transfected cells; host or cells: S. cerevisiae FY250
T7 sequence (P06536 524-795 F620S/C656G limits assumed): T1 sequence (P06536 524-795 F620S/C656G limits assumed)
T7 sequence (P0ABQ4 1-159): T1 sequence (P0ABQ4 1-159)
Text: as §1, §2

LexA eDHFR / B42 rGR2 = biological target: T8, LexA eDHFR / B42 rGR2 (UniProt P06536+P0ABQ4, C656G/F620S); test: β-galactosidase activity assay, strain V493Y
T8 construct: rat Glucocorticoid Receptor (aa 524-795) with point mutations; expressed in transfected cells; host or cells: S. cerevisiae FY250
T8 sequence (P0ABQ4 1-159): T1 sequence (P0ABQ4 1-159)
T8 sequence (P06536 524-795 F620S/C656G limits assumed): T1 sequence (P06536 524-795 F620S/C656G limits assumed)
Text: as §1, §2

[7] = biological target: T9, LexA eDHFR / B42 (GSG)rGR2 (UniProt P06536+P0ABQ4, C656G/F620S); test: β-galactosidase activity assay, strain V494Y
T9 construct: rat Glucocorticoid Receptor (aa 524-795) with point mutations; expressed in transfected cells; host or cells: S. cerevisiae FY250
T9 sequence (P0ABQ4 1-159): T1 sequence (P0ABQ4 1-159)
T9 sequence (P06536 524-795 F620S/C656G limits assumed): T1 sequence (P06536 524-795 F620S/C656G limits assumed)
Text: as §1, §2

[8] = biological target: T10, LexA rGR2 / B42 (GSG)2eDHFR (UniProt P06536+P0ABQ4, C656G/F620S); test: β-galactosidase activity assay, strain V509Y
T10 construct: expressed in transfected cells; host or cells: S. cerevisiae FY250 with pMW106 lacZ reporter
T10 sequence (P06536 524-795 F620S/C656G limits assumed): T1 sequence (P06536 524-795 F620S/C656G limits assumed)
T10 sequence (P0ABQ4 1-159): T1 sequence (P0ABQ4 1-159)
Text: as §1, §2

For `C[C@@H]1C[C@H]2C3CCC4=CC(=O)C=C[C@]4(C)[C@@]3(F)[C@@H](O)C[C@]2(C)[C@@]1(O)C(=O)NCCSCCCCCCCCCCSCC[C@H](NC(=O)c1ccc(N(C)Cc2cnc3nc(N)nc(N)c3n2)cc1)C(=O)O` (stereo partly shown) [D10M], the B-gal activity [1] was 2926 β-galactosidase units, the B-gal activity [2] was 308 β-galactosidase units and the B-gal activity [3] was 4013 β-galactosidase units. For the same compound, the B-gal activity [4] was 6 β-galactosidase units, the B-gal activity (LexA mDHFR / B42 rGR2) was 513 β-galactosidase units and the B-gal activity [5] was 740 β-galactosidase units. For the same compound, the B-gal activity [6] was 2314 β-galactosidase units, the B-gal activity (LexA eDHFR / B42 rGR2) was 5812 β-galactosidase units and the B-gal activity [7] was 9398 β-galactosidase units. The B-gal activity [8] was 2028 β-galactosidase units.
